Measured values as given in publication PMC3142248, “The asthma candidate gene NPSR1 mediates isoform specific downstream signalling” (BMC Pulmonary Medicine, 2011).
No end group written: not given here.

Assays:
NPSR1-A [1] = biological target: T1, NPSR1-A (Homo sapiens, UniProt Q6W5P4, N107I); test: NPS concentration-response, mRNA expression by qRT-PCR, HEK-293 NPSR1-A; format: cell-based; details: 0.001-10 μM NPS, 6 h, Hill fit, mean ± SEM
T1 construct: expressed in transfected cells; host or cells: HEK-293, transient transfection with pCMV-NPSR1-A
T1 sequence (Q6W5P4 1-371 N107I): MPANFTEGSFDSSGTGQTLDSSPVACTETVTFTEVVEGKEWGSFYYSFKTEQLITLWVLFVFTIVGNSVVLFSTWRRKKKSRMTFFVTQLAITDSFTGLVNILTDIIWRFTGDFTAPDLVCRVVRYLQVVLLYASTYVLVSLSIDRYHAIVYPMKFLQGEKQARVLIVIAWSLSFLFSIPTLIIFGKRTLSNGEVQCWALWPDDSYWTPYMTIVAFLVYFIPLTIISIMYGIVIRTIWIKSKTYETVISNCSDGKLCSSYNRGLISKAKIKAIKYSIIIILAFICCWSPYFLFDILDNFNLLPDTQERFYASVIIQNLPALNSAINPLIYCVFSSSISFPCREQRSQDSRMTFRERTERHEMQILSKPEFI
Procedure: (§1) Human embryonic kidney cells (HEK-293) were cultured in MEM+GlutaMAX-1 medium (Gibco/Invitrogen) supplemented with 10% fetal calf serum (FCS) (Biosera), 1% sodium pyruvate, 1% non-essential amino acids and 1% penicillin/streptomycin (Gibco/Invitrogen). Human epithelial lung carcinoma cells (A549) were cultured in F-12/D-MEM medium (1:1; Gibco/Invitrogen) supplemented with 10% FCS, L-glutamine and 1% penicillin/streptomycin. Human neuroblastoma cells (SH-SY5Y) were cultured in MEM + GlutaMAX-1 medium supplemented with 10% FCS and 1% penicillin/streptomycin. All cells were kept at 37°C in a humified 5% CO2 incubator. The cells were transiently transfected (Lipofectamin™2000 Reagent, Invitrogen, Carlsbad, USA) with equal amounts of pCMV-NPSR1-A,- NPSR1-B (construction of the expression vectors has been described earlier) or an empty pCMV vector control in a ratio of 1:2 (DNA:Lipofectamin). 24 h post transfection cells were stimulated with NPS ([…]) (Sigma-Genosys LTD, Haverhill, UK or New England Peptide™, Gardner, MA, USA).
(§2) Total cellular RNA was isolated with the RNAeasy Mini Kit (Qiagen, Hilden, Germany) and reverse transcription was done using the iScript™ cDNA synthesis kit (Bio-Rad Laboratories, Hercules, CA, USA) or SuperScript™ First-Strand Synthesis System (Invitrogen, Carlsbad, USA) according to the manufacturer's protocol. All experiments were performed in biological duplicates or triplicates. qRT-PCR was performed using Fast SYBR® Green technology with hypoxanthine-guanine phosphoribosyl transferase (HPRT) or glyceraldehyde-3-phosphate dehydrogenase (GAPDH) as endogenous controls. Gene-specific primers were designed using Primer3 software (for complete lists of all primer sequences please see Additional file 1, Table S1). The PCR assays were performed in a total volume of 10 μl, containing 2 ul cDNA template, 5 ul Fast SYBR® Green PCR Master Mix (Applied Biosystems, Foster City, CA, USA) and 100 nM of each primer. A 7500 Fast Real-Time PCR system (Applied Biosystems) was used according to manufacturer's instructions. A dissociation stage was added to confirm primer specificity. All assays were carried out in technical duplicates or triplicates. Relative quantification and calculation of the range of confidence was performed with the comparative ΔΔCT method. Results are shown as relative expression compared to NPS stimulated empty vector control cells with error bars illustrating the standard error of the mean (SEM). The levels of total NPSR1 mRNA and isoform specific NPSR1-A and NPSR1-B mRNA were measured with qRT-PCR to control for equal isoform expression levels prior to any experiment on all transiently transfected cells (representative data shown Figure 2b).
(§3) To refine concentration and time dependency transiently NPSR1-A, -B or empty pCMV vector overexpressing cells were treated either with 0.001, 0.01, 0.1, 1 or 10 μM NPS for 6 h (concentration-response) or with 2 μM NPS for 30 min, 1, 2, 4, 6, 12, 24 or 48 h (time-response). To verify the results in other cell types, A549 and SH-SY5Y transiently overexpressing NPSR1-A, -B or an empty pCMV vector were treated with 2 μM NPS for 6 h. mRNA expression was measured with qRT-PCR. Agonist concentration-effect curve data were fitted to the Hill equation using an iterative, least squares method (GraphPad Prism, San Diego, CA, U.S.A), to provide estimate EC50 (the agonist concentration that induces half-maximum effect) and presented as -log10 (pEC50) which is normally distributed.

NPSR1-B [2] = biological target: T2, NPSR1-B (Homo sapiens, UniProt Q6W5P4, N107I); test: NPS concentration-response, mRNA expression by qRT-PCR, HEK-293 NPSR1-B; format: cell-based; details: 0.001-10 μM NPS, 6 h, Hill fit, mean ± SEM
T2 construct: expressed in transfected cells; host or cells: HEK-293, transient transfection with pCMV-NPSR1-B
T2 sequence (Q6W5P4 1-377 isoform Q6W5P4-4 N107I): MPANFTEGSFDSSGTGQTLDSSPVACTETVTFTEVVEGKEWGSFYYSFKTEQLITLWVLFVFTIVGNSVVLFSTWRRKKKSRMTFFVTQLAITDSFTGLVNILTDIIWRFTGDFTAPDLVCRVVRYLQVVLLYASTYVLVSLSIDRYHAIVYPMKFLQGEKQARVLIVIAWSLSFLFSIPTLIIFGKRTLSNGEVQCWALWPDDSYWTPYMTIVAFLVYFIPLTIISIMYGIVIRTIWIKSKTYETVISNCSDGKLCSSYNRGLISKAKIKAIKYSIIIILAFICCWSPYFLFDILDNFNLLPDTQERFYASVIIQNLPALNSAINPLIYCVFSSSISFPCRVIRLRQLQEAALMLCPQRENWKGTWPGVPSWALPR
Procedure: as §1, §2, §3

NPSR1-A [3] = biological target: T1, NPSR1-A; test: cAMP accumulation (EIA), HEK-293 NPSR1-A; format: cell-based; details: 0.001-10 μM NPS, 20 min, 200 μM 3-isobutyl-1-methylxanthine 40 min before, six replicas, mean ± SEM
Procedure: (§4) Human embryonic kidney cells (HEK-293) were cultured in MEM+GlutaMAX-1 medium (Gibco/Invitrogen) supplemented with 10% fetal calf serum (FCS) (Biosera), 1% sodium pyruvate, 1% non-essential amino acids and 1% penicillin/streptomycin (Gibco/Invitrogen). Human epithelial lung carcinoma cells (A549) were cultured in F-12/D-MEM medium (1:1; Gibco/Invitrogen) supplemented with 10% FCS, L-glutamine and 1% penicillin/streptomycin. Human neuroblastoma cells (SH-SY5Y) were cultured in MEM + GlutaMAX-1 medium supplemented with 10% FCS and 1% penicillin/streptomycin. All cells were kept at 37°C in a humified 5% CO2 incubator. The cells were transiently transfected (Lipofectamin™2000 Reagent, Invitrogen, Carlsbad, USA) with equal amounts of pCMV-NPSR1-A,- NPSR1-B (construction of the expression vectors has been described earlier) or an empty pCMV vector control in a ratio of 1:2 (DNA:Lipofectamin). […]
(§5) To assay cAMP accumulation, transiently NPSR1-A or -B overexpressing HEK-293 cells were 24 h after transfection incubated for 40 min with 200 μM 3-isobutyl-1-methylxanthine (Sigma-Aldrich, St. Louis, MO, USA), a nonspecific inhibitor of phosphodiesterases. […] The fluorescence intensity was measured before and after injection of 1 μM NPS using the Fluostar Optima microplate reader (BMG Labtechnologies, Offenburg, Germany).

NPSR1-B [4] = biological target: T2, NPSR1-B; test: cAMP accumulation (EIA), HEK-293 NPSR1-B; format: cell-based; details: 0.001-10 μM NPS, 20 min, 200 μM 3-isobutyl-1-methylxanthine 40 min before, six replicas, mean ± SEM
Procedure: as §4, §5

monocytic cell lines = details: pro-inflammatory stimuli, ref [10]; cited from earlier work
Text: The increasing number of positive association studies supports the concept that NPSR1 is mechanistically involved in asthma and allergy, and also in other diseases. It is therefore highly important to understand its functions in more detail. […] Furthermore, we have observed that out ...

[5] = read-out: pEC50, AREG mRNA (converted)
[6] = read-out: pEC50, CGA mRNA (converted)
[7] = read-out: pEC50, NR4A2 mRNA (converted)
[8] = read-out: pEC50, PCK1 mRNA (converted)

“SFRNGVGTGMKKTSFQRAKS [NPS, neuropeptide S]” gave an EC50 (NPSR1-A [1]; [5]) of 234 nM, an EC50 (NPSR1-A [1]; [6]) of 45.7 nM and an EC50 (NPSR1-A [1]; read-out: pEC50, EGR1 mRNA (converted)) of 72.4 nM. For the same molecule, the EC50 (NPSR1-A [1]; read-out: pEC50, FOS mRNA (converted)) was 53.7 nM, the EC50 (NPSR1-A [1]; read-out: pEC50, IL8 mRNA (converted)) was 44.7 nM and the EC50 (NPSR1-A [1]; [7]) was 7.94 nM. For the same molecule, the EC50 (NPSR1-A [1]; read-out: pEC50, NTS mRNA (converted)) was 87.1 nM, the EC50 (NPSR1-A [1]; [8]) was 162 nM and the EC50 (NPSR1-B [2]; [5]) was 170 nM. It also gave an EC50 (NPSR1-B [2]; read-out: pEC50, CCL20 mRNA (converted)) of 100 nM, an EC50 (NPSR1-B [2]; [6]) of 100 nM and an EC50 (NPSR1-B [2]; [7]) of 83.2 nM. It also gave an EC50 (NPSR1-B [2]; [8]) of 89.1 nM, an EC50 (NPSR1-B [2]; read-out: pEC50, SERPINB2 mRNA (converted)) of 126 nM and an EC50 (NPSR1-A [3]) of 4.47 nM. It also gave an EC50 (NPSR1-B [4]) of 3.89 nM.

For TNFα, the “NPSR1 mRNA levels” value (monocytic cell lines) is given as “generated elevated NPSR1 mRNA levels”.

B1: IFNγ: pro-inflammatory stimulus (protein, UniProt P01579 24-161, looked up)
Interferon gamma: QDPYVKEAENLKKYFNAGHSDVADNGTLFLGILKNWKEESDRKIMQSQIVSFYFKLFKNFKDDQSIQKSVETIKEDMNVKFFNSNKKKRDDFEKLTNYSVTDLNVQRKAIHELIQVMAELSPAAKTGKRKRSQMLFRG
For B1, the “NPSR1 mRNA levels” value (monocytic cell lines) is listed as “generated elevated NPSR1 mRNA levels”.
